Experimental data as given in US9447134B2 (priority 2012, dated 2016).
Read-outs that look alike come from different tables or passages of the source.

Columns and labels:
[1] = Mouse liver microsomal stability
B. anthracis IMPDH = B. anthracis IMPDH (Bacillus anthracis, UniProt A0A6L8P2U9); assay: biochemical
S. pyogenes IMPDH = S. pyogenes IMPDH (Streptococcus pyogenes, UniProt P0C0H6); assay: biochemical
F. tularensis IMPDH = F. tularensis IMPDH (Francisella tularensis, UniProt Q5NFC2); assay: biochemical
CpIMPDH [2] = molecular target: T1, CpIMPDH (Cryptosporidium parvum, UniProt Q8T6T2)
T1 sequence (Q8T6T2 1-400): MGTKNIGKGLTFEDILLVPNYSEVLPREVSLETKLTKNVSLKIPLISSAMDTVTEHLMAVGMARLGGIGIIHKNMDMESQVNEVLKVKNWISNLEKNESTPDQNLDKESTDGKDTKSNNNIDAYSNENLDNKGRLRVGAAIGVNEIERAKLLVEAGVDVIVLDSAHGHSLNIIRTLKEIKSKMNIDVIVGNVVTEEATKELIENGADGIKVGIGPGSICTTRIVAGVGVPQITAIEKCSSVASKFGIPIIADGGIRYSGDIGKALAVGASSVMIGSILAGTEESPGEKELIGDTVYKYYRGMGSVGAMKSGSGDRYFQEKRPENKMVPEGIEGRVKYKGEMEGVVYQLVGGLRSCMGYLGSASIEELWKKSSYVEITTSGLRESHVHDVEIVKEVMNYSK

Bu. mallei IMPDH = format: biochemical, Burkholderia mallei; conditions: FIG. 24
Caco-2 cells [3] = assay: Uptake in Caco-2 cells; format: in vitro ADME, human; conditions: extracellular concentration 10 μM
Description: FIG. 33 tabulates urea CpIMPDH inhibitor permeability and uptake in Caco-2 TC7 cells. All compounds at 10 μM, pH 7.4 on both sides. Solid recovery >80% in all cases. a. Approximate intracellular concentration, assuming 4 μL of water for 1 mg of cellular protein.
To further investigate the relationship between intestinal accumulation and antiparasitic activity, we measured the uptake of the CpIMPDH inhibitors in Caco-2 cells, a widely used model of human intestinal epithelial cells. Uptake varied over a range of 2000-fold among the eight CpIMPDH inhibitors (FIG. 33). […] All of the other compounds accumulated intracellular concentrations in excess of the extracellular concentration. […] The concentrations of all the other compounds were lower by at least a factor of 10, but nevertheless exceeded the concentrations required to inhibit CpIMPDH.

gut microbiota = conditions: 250 mg/kg daily, 7 days, compared with vehicle
[4] = Tissue distribution of P131 in mice; conditions: 24 h after a single 83 mg/kg oral dose
Caco-2 cells [5] = assay: Efflux from preloaded Caco-2 cells; format: in vitro ADME, human; conditions: preincubated with 100 μM
Description: FIG. 37 depicts the amount of P131 remaining in Caco-2 cells after the cells were loaded with different concentrations of P131 for 2 h at 37° C. in HBSS. The efflux tin is −1 h for loading at 100 μM and 2 h for 20 μM and 5 μM.
We preloaded Caco-2 cells with 5, 20 or 100 μM P131, then measured efflux (FIG. 37). The initial intracellular concentrations of P131 were dose dependent and scaled with the extracellular concentration for the 5 and 20 μM preincubation conditions. […] P131 efflux was very slow under all three conditions, with tin of 1-2 h.

[6] = Plasma pharmacokinetics in C57BL/6 mice; format: in vivo, mouse
Description: FIG. 32 tabulates the pharmacokinetic parameters for urea CpIMPDH inhibitors. C57BL/6 mice received a single dose of 250 mg/kg in 10% DMSO/corn oil by oral gavage.
Given the limited efficacy of current treatments, the pharmacokinetic and physicochemical properties required for in vivo efficacy have not been established. […] P82 is the primary product of P83 metabolism, so the concentration of P82 in plasma was also measured during P83 treatment.
PK was assessed at either the Stony Brook Translation Experimental Laboratory Therapeutics (Stony Brook, NY) or GVK Biosciences (Hyderabad, India).

A. baumannii IMPDH = A. baumannii IMPDH (Acinetobacter baumannii, UniProt D0CF46); assay: biochemical
[7] = mouse, in vivo; cited from earlier work
Cryptosporidium = conditions: mouse models; cited from earlier work
Caco-2 cells [8] = conditions: cited from earlier work
CpIMPDH [9] = molecular target: T1, CpIMPDH; assay: biochemical
CpIMPDH [10] = molecular target: T1, CpIMPDH; remark: listed apart in the source

Chain of B. anthracis IMPDH (A0A6L8P2U9 1-487): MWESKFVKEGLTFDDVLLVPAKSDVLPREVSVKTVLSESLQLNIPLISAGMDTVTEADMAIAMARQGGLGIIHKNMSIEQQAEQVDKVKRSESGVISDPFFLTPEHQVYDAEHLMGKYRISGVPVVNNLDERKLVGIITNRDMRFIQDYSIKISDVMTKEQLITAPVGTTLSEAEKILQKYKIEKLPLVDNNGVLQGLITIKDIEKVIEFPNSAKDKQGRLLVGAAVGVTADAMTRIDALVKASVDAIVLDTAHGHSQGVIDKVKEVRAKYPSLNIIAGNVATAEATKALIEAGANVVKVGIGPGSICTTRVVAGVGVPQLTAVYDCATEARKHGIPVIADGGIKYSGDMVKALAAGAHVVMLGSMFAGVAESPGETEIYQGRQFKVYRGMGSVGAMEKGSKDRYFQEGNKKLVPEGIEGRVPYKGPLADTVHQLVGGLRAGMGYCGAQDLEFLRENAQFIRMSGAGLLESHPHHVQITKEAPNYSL
Chain of A. baumannii IMPDH (D0CF46 entry or part of it): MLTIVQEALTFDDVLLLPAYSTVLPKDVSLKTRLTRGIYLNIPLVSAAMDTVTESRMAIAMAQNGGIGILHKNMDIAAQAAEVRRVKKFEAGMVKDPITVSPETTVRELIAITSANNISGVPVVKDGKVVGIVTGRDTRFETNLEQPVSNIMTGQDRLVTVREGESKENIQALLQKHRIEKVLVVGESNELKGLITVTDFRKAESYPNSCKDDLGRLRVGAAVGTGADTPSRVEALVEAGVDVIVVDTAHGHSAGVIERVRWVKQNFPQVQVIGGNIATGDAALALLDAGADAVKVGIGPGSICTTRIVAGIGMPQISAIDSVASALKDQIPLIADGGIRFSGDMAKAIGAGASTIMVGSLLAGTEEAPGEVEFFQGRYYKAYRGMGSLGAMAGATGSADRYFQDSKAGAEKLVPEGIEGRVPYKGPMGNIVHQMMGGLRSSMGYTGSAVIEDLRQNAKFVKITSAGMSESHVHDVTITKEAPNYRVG
Chain of S. pyogenes IMPDH (P0C0H6 whole entry): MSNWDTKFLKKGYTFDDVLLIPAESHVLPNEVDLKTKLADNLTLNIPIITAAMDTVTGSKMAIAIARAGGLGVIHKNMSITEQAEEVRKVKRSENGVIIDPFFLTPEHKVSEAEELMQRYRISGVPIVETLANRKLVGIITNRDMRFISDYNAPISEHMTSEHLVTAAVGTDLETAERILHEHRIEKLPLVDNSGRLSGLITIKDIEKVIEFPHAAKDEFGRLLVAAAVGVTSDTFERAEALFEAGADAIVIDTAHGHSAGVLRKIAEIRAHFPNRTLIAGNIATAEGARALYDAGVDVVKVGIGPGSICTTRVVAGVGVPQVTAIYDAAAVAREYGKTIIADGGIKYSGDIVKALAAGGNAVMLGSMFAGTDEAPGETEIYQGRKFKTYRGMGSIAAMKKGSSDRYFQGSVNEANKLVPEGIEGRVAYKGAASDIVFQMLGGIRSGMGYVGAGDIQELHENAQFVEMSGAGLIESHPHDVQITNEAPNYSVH
Chain of F. tularensis IMPDH (Q5NFC2 1-486): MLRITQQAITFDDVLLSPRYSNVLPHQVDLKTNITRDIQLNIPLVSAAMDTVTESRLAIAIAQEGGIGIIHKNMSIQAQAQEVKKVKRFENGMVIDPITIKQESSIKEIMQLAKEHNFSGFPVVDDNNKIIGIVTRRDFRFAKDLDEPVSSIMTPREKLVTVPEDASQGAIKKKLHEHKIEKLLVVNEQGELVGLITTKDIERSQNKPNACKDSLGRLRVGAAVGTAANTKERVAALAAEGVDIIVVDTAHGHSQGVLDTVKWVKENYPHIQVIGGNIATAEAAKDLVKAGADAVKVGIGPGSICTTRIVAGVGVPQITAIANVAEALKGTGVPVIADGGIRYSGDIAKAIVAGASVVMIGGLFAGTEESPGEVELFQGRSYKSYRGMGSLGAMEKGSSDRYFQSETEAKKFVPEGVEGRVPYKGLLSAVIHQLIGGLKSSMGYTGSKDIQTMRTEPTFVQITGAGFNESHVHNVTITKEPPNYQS

With `CC1(c2cccc(CNC(=O)Nc3ccc(Cl)cc3)c2)OCCO1` [Compound 22, 1-(4-Chlorophenyl)-3-(3-(2-methyl-1,3-dioxolan-2-yl)benzyl)urea] the “half-life in mouse liver microsomes” value ([1]; 37° C., absence of NADPH) was “quite stable” and the “half-life in mouse liver microsomes” value ([1]; 37° C., presence of NADPH) was 0.417 h.
In the case of `Cn1nc(CC(=O)Nc2ccc3oc4ccccc4c3c2)c2ccccc2c1=O` [Compound D73, N-(dibenzo[b,d]furan-2-yl)-2-(3-methyl-4-oxo-3,4-dihydrophthalazin-1-yl)acetamide], the IC50 (B. anthracis IMPDH) is reported as 270 nM, the IC50 (S. pyogenes IMPDH) is reported as > 100000 nM and the IC50 (F. tularensis IMPDH) is reported as 60 nM. The IC50 (CpIMPDH [2]; read-out: IC50 against CpIMPDH) was 4 nM and the IC50 (Bu. mallei IMPDH) was 100 nM.
With “N-(6,7,8,9-tetrahydrodibenzo[b,d]furan-5-yl)-2-(3-methyl-4-oxo-3,4-dihydro-phthalazin-1-yl)acetamide [Compound D67]” the “CpIMPDH inhibitory activity (SAR, in words)” value (shortened to “CpIMPDH inhibitory activity”) (CpIMPDH [2]) was “enhanced potency”.
For `CC(=NOCCN)c1cccc(C(C)(C)NC(=O)Nc2ccc(Cl)c([N+](=O)[O-])c2)c1` [Compound P131], the “uptake/accumulation in Caco-2 cells (in words)” value (Caco-2 cells [3]) was “millimolar concentrations”, the IC50 (B. anthracis IMPDH) was 210 nM and the “impact on fecal microbiota” value (gut microbiota) was “no additional impact”. For the same compound, the “intestine and feces concentration over IC50 for CpIMPDH inhibition” value [4] was “more than 100 fold”, the “cytotoxicity to Caco-2 cells” value (Caco-2 cells [5]) was “Some cytotoxicity” and the plasma half-life ([6]; 250 mg/kg single oral dose, C57BL/6 mice) was 4 h. The Cmax ([6]; 250 mg/kg single oral dose, C57BL/6 mice, read-out: maximal plasma concentration (Cmax)) was 9 µM, the “plasma pharmacokinetic behavior / systemic distribution (in words)” value ([6]; mouse, in vivo) was “poor systemic distribution” and the IC50 (A. baumannii IMPDH) was 710 nM. For the same compound, the “in vivo antiparasitic activity, fecal oocysts (in words)” value (C. parvum; IL-12 knockout mice, 250 mg/kg daily oral gavage) was “anticryptosporidial activity”.
With `Cn1nc(CC(=O)Nc2ccc3[nH]c4ccccc4c3c2)c2ccccc2c1=O` [Compound D70, N-(9H-carbazol-3-yl)-2-(3-methyl-4-oxo-3,4-dihydrophthalazin-1-yl)acetam-de] the “CpIMPDH inhibitory activity” value (CpIMPDH [2]) was “not active”.
For `Cn1nc(CC(=O)Nc2ccc3c(c2)oc2ccccc23)c2ccccc2c1=O` [Compound D72, N-(dibenzo[b,d]furan-3-yl)-2-(3-methyl-4-oxo-3,4-dihydrophthalazin-1-yl)acetamide], the “CpIMPDH inhibitory activity” value (CpIMPDH [2]) was “not active”.
For `CC(=O)Oc1ccccc1C(=O)Nc1ncc([N+](=O)[O-])s1` [nitazoxanide], the “systemic distribution / oral bioavailability (literature, in words)” value [7] is listed as “systemically distributed” and the “in vivo anticryptosporidial efficacy (literature, in words)” value (Cryptosporidium) is listed as “little to no efficacy”.
In the case of `NC[C@@H]1O[C@H](O[C@H]2[C@@H](O)[C@H](O[C@@H]3[C@@H](O)[C@H](N)C[C@H](N)[C@H]3O[C@H]3O[C@H](CO)[C@@H](O)[C@H](O)[C@H]3N)O[C@@H]2CO)[C@H](N)[C@@H](O)[C@@H]1O` [Paromomycin, paromomycin], the “accumulation in Caco-2 cells (in words)” value (Caco-2 cells [8]) is given as “high accumulation”, the “systemic distribution / oral bioavailability (literature, in words)” value [7] is given as “poor oral bioavailability” and the “range of reduction of fecal oocysts over experiments” value (C. parvum; paromomycin 2000 mg/kg daily oral gavage) is given as 73-99%. The “average reduction of fecal oocysts” value (C. parvum; paromomycin 2000 mg/kg daily oral gavage, average of experiments) was 89% and the “reduction of fecal oocysts, multiple daily dose regime” value (C. parvum; three daily doses (P131 3×83 mg/kg), 10,000 oocysts, counted day 4 post-infection) was 88-95%.
In the case of `O=c1[nH]c(=O)n([C@H]2C[C@H](O)[C@@H](CO)O2)cc1C(F)(F)F` [Trifluoromethylthymidine], the “in vivo anticryptosporidial efficacy (literature, in words)” value (Cryptosporidium) is listed as “significant anticryptosporidial activity”.
Compound `Cc1cc2cc(NC(=O)Cc3nn(C)c(=O)c4ccccc34)ccc2o1` [Compound D62, N-(2-methylbenzofuran-5-yl)-2-(3-methyl-4-oxo-3,4-dihydrophthalazin-1-yl)-acetamide] has an IC50 (CpIMPDH [9]) of 70 nM.
For `Cn1nc(CC(=O)Nc2ccc3ocnc3c2)c2ccccc2c1=O` [Compound D64, N-(benzo[d]oxazol-5-yl)-2-(3-methyl-4-oxo-3,4-dihydrophthalazin-1-yl)acetamide], the “CpIMPDH inhibitory activity” value (CpIMPDH [2]) was “inactive”.
For `Cn1nc(CC(=O)Nc2ccc(Cl)c(C(F)(F)F)c2)c2ccccc2c1=O`, the “half-life in mouse liver microsomes” value ([1]; presence or absence of NADPH not given) was 1.32 h, the “inhibition mechanism with respect to NAD+” value (CpIMPDH [10]) was “pure noncompetitive inhibitor” and the Ki (CpIMPDH [10]; read-out: Kis, with respect to NAD+) was 3.4 ± 0.2 nM.
With `CCn1c2ccccc2c2cc(NC(=O)Cc3nn(C)c(=O)c4ccccc34)ccc21` [Compound D71, N-(9-ethyl-9H-carbazol-3-yl)-2-(3-methyl-oxo-3,4-dihydrophthalazin-1-yl) acetamide] the “CpIMPDH inhibitory activity” value (CpIMPDH [2]) was “not active”.
